The results in this text go back to patent US9776972B2, “Pyrazole derivatives as arginine methyltransferase inhibitors and uses thereof” (priority 2013, dated 2017).

The target of one test is T1, human PRMT1 (Homo sapiens, UniProt Q99873).
T1 construct: GST-tagged PRMT1; made in house; host or cells: High Five insect cells (baculovirus)
Kind of test: PRMT1 Biochemical Assay (3H-SAM Flashplate, peptide substrate). The settings on record: single experiment or average of multiple experiments. The method, boiled down:
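GST-tagged PRMT1 from baculovirus-infected cells, preincubated with compounds 30 min at room temperature in 20 mM Bicine pH 7.6, 1 mM TCEP, 0.005% BSG, 0.002% Tween 20. Reaction started with ³H-SAM plus biotinylated peptide, stopped with 300 µM cold SAM.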

The target in another test is T2, human PRMT6 (Homo sapiens, UniProt Q96LA8).
T2 construct: Flag-PRMT6-His; made in house; host or cells: HEK 293F cells (BacMam baculovirus)
T2 sequence (Q96LA8 with tags, fused parts or gaps): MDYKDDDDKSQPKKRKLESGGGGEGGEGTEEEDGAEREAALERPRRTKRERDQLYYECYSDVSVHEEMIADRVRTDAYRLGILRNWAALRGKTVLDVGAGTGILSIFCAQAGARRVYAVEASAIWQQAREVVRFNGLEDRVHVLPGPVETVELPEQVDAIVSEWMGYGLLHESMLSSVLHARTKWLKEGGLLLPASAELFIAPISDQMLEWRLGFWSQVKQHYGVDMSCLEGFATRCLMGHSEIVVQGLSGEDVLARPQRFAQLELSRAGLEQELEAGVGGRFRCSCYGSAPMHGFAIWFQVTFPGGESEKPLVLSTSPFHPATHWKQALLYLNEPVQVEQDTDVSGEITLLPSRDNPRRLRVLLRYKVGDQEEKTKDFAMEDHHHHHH
Briefly: PRMT6 Biochemical Assay (3H-SAM Flashplate, peptide substrate). The method in brief:
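Methylation of a biotin-tagged H4 (36-50) peptide by ³H-SAM was quantified by streptavidin Flashplate capture and scintillation counts (dpm/cpm). Before SAM/peptide addition, Flag-PRMT6-His was preincubated with compound for 30 min at room temperature in Bicine buffer, pH 7.6.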

Setting [1] is: Biochemical IC50 PRMT6, single experiment or average of multiple experiments.
Where [2] appears, read: single experiment or average of multiple experiments, read-out: Biochemical IC50 PRMT6.

Each structure is given as a SMILES string. Like-named read-outs stand apart in the source and are kept apart here.

As usually defined, the IC50 is the concentration that gives 50% inhibition.

T1 sequence (Q99873 with tags, fused parts or gaps): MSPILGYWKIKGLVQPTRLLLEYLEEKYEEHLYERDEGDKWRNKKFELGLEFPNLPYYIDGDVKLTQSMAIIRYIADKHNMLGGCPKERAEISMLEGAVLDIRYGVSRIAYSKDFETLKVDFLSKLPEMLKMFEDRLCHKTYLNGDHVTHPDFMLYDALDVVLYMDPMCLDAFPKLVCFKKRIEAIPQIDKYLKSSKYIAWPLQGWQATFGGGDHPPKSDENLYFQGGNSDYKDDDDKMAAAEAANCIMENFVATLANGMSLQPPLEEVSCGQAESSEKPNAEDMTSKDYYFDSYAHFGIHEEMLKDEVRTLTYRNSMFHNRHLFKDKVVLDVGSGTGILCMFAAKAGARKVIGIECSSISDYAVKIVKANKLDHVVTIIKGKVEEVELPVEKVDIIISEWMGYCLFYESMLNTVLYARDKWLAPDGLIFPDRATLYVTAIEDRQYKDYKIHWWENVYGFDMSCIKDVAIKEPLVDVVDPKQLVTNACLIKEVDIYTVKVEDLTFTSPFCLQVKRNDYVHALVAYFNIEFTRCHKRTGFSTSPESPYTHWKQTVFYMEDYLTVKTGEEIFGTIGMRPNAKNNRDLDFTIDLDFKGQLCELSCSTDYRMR

Turning to `CNCCN(C)Cc1cn(CCCC(O)CO)nc1-c1ccc(F)cc1` (stereo not drawn) [Compound 30], the IC50 on human PRMT1 turned out to be 3560 nM; on human PRMT6 (setting [1]) it was 565 nM.
On to `CNCCN(C)Cc1cn(CC(N)=O)nc1-c1ccc(OC(C)C)cc1` [Compound 251], for which the IC50 against human PRMT1 is 275 nM; against human PRMT6 (setting [1]), 2370 nM.
`CNCCN(C)Cc1cn(CCC(O)CO)nc1-c1ccc(F)cc1` (stereo not drawn) [Compound 59]: the IC50 stood at 5860 nM against human PRMT1 and 627 nM against human PRMT6 (setting [1]).
The matching figures for `CNCCN(C)Cc1n[nH]cc1-c1ccc(Oc2cccc(F)c2)cc1` [Compound 270]: 2.79 nM and 1.24 nM.
Consider `CNCCN(C)Cc1n[nH]cc1-c1ccc(Oc2cccc(C(=O)NC)c2)cc1` [Compound 268], for which the IC50 at human PRMT1 turned out to be 4.58 nM; against human PRMT6 (setting [1]) it was 2 nM.
In the case of `CNCCN(C)Cc1c[nH]nc1-c1cccc2ccccc12` [Compound 57], the IC50 on human PRMT1 came out at 7.07 nM; at human PRMT6 (setting [1]) it was 10.3 nM.
Taken in the same sequence, the figures for `CNCCN(C)Cc1c[nH]nc1-c1ccc(OC)c(F)c1` [Compound 52] were 12.6 nM and 8.92 nM.
`CNCCN(C)Cc1cn(CC(=O)OC)nc1-c1ccc(OC(C)C)cc1` [Compound 248]: the results for the IC50 against human PRMT1 and on human PRMT6 (setting [1]) were 215 nM and 831 nM, respectively.
As for `CNCCN(C)Cc1c[nH]nc1-c1ccc(F)cc1` [Compound 2, N^1-((3-(4-fluorophenyl)-1H-pyrazol-4-yl)methyl)-N^1,N^2-dimethylethane-1,2-diamine], the IC50 came to 57.6 nM on human PRMT1 and 96.1 nM on human PRMT6 (setting [1]).
Taken in the same sequence, the figures for `CNCCN(C)Cc1c[nH]nc1-c1ccc(Oc2ccccc2)c(C(=O)NC)c1` [Compound 232] were 25 nM and 16.6 nM.
The matching figures for `CNCCN(C)Cc1n[nH]cc1-c1cc(OC(C)C)cc(C(C)C)c1` [Compound 272]: 156 nM and greater than 1000 nM.
As to `CNCCN(C)Cc1c[nH]nc1-c1ccc(O)cc1` [Compound 27], the IC50 worked out at 97.7 nM against human PRMT1 and 18.5 nM against human PRMT6 (setting [1]).
Taken in the same sequence, the figures for `CNCCN(C)Cc1c[nH]nc1-c1cc(CC(C)C)cc(CC(C)C)c1` [Compound 281] were 11.2 nM and 241 nM.
Taken in the same sequence, the figures for `CNCCN(C)Cc1c[nH]nc1-c1ccc(Oc2ccccc2)c(C(=O)N(C)C)c1` [Compound 233] were 29.3 nM and 18.2 nM.
Turning to `CNCCN(C)Cc1c[nH]nc1-c1ccc(C(=O)c2ccccc2)cc1` [Compound 45], the IC50 worked out at 8.34 nM against human PRMT1 and 7.54 nM at human PRMT6 (setting [2]).
As to `CNCCN(C)Cc1c[nH]nc1-c1ccc(Oc2cccc(OC)c2)cc1` [Compound 230], the results for the IC50 against human PRMT1 and on human PRMT6 (setting [1]) were 3.43 nM and 2.19 nM, respectively.
Take `CNCCN(C)Cc1c[nH]nc1-c1ccc(CO)cc1` [Compound 28]: the IC50 was 11.1 nM at human PRMT1 and 9.1 nM against human PRMT6 (setting [1]).
As for `CNCCN(C)Cc1c[nH]nc1-c1ccccc1C(F)(F)F` [Compound 38], the IC50 against human PRMT1 stood at 1830 nM; on human PRMT6 (setting [2]), 352 nM.
Regarding `CNCCN(C)Cc1cn(C)nc1-c1ccc(OC(C)C)cc1` [Compound 243, N^1-((3-(4-isopropoxyphenyl)-1-methyl-1H-pyrazol-4-yl)methyl)-N1,N2-dimethylethane-1,2-diamine], the IC50 at human PRMT1 worked out at 17.7 nM; on human PRMT6 (setting [1]) it was 286 nM.
As for `CNCCN(C)Cc1c[nH]nc1-c1cc(Cl)c(OCC2CC2)c(Cl)c1` [Compound 282], the concentration for half-maximal inhibition (IC50) at human PRMT1 stood at 2.21 nM; against human PRMT6 (setting [1]), 4.75 nM.
Taken in the same sequence, the figures for `CCn1ncc(CN(C)CCNC)c1-c1ccc(OC(C)C)cc1` [Compound 252] were 25.8 nM and 102 nM.
Consider `CNCCN(C)Cc1n[nH]cc1-c1ccc(Oc2ccccc2)c(C(=O)NC)c1` [Compound 240], for which the IC50 on human PRMT1 worked out at 38.2 nM; against human PRMT6 (setting [1]), 14.6 nM.
The matching figures for `CNCCN(C)Cc1c[nH]nc1-c1cc(OC(C)C)cc(C(C)C)c1` [Compound 260]: 23.9 nM and 243 nM.
Taken in the same sequence, the figures for `CNCCN(C)Cc1cn(C2CCCCC2)nc1-c1ccc(OC(C)C)cc1` [Compound 256] were 132 nM and 921 nM.
